ChEMBL document CHEMBL1201862, “PubChem BioAssay data set” (2004)
Active and inactive are the calls of the source.

Legend:
[1] = target: Neuropeptides B/W receptor type 1 (Homo sapiens, UniProt P48145); assay: Fluorescence-based dose response cell-based high throughput screening assay to identify antagonists of the G-protein coupled receptor 7 (GPR7). [Related pubchem assays: 1952 (Screening assay (GPR7 antagonists).), 1880 (Summary AID.)]; type: functional
[2] = target: Melanin-concentrating hormone receptor 1 (Homo sapiens, UniProt Q99705); assay: Fluorescence-based counterscreen for antagonists of the G-protein coupled receptor 7 (GPR7): cell-based high throughput dose response assay to identify antagonists of the melanin-concentrating hormone receptor 1 (MCHR1).; type: functional
[3] = target: Dual specificity protein phosphatase 3 (Homo sapiens, UniProt P51452); assay: inhibition constants for human DUSP3 – biochemical, colorimetric, SAR follow-up (AID 2004)
[4] = tested on: Streptococcus sp. 'group A'; assay: Streptococcus pyogenes SK(-)GAS viability under kanamycin – luminescence, BacTiterGlo, confirmation, counter-screen for streptokinase expression inhibitor project, dose response (AID 1900); type: functional, organism-based
[5] = target: Serine/threonine-protein phosphatase PP1-alpha catalytic subunit (Homo sapiens, UniProt P62136); assay: inhibition of protein phosphatase 1 activity – biochemical, fluorescence, dose response (AID 2403);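 also: phosphatase turnover of OMFP into fluorescent 3-O-methylfluorescein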
[6] = target: T1, Alkaline phosphatase, tissue-nonspecific isozyme (Homo sapiens, UniProt P05186)
T1 sequence (P05186 whole entry): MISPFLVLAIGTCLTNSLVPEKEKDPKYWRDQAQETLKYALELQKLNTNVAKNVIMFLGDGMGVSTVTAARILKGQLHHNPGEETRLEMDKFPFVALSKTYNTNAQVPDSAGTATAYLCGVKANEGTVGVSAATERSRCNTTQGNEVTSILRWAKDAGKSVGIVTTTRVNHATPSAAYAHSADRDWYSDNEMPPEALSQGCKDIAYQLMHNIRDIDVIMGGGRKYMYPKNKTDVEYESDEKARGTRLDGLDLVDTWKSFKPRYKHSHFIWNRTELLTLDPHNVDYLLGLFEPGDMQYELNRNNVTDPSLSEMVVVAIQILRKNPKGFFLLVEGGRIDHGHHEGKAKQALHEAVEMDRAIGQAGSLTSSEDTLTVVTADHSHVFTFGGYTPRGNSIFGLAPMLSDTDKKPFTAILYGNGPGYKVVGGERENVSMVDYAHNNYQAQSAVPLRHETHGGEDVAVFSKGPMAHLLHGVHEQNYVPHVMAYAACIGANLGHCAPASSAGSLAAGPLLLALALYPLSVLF

Streptokinase A = target: T2, Streptokinase A (Streptococcus pyogenes serotype M1, UniProt P10520); assay: viability-normalized secreted streptokinase activity reduction – plasminogen activation absorbance, OD405, dose response (AID 1914); type: functional, Streptococcus pyogenes M1 GAS;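 also: secreted streptokinase activity via plasminogen activation per viability signal from cell pellet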
T2 sequence (P10520 whole entry): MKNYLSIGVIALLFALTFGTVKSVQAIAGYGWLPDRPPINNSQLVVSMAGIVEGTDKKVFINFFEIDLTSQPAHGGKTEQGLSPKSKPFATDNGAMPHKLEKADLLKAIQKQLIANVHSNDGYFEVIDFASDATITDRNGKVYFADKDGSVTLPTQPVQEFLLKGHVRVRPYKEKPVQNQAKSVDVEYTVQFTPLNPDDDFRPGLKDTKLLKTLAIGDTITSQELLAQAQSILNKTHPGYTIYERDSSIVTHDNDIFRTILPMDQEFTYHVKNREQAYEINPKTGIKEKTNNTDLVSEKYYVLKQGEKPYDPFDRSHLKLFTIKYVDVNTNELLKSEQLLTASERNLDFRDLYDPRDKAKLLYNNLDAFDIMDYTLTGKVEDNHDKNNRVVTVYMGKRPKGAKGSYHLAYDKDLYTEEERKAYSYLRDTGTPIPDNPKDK

[7] = target: Serine/threonine-protein phosphatase (Homo sapiens, UniProt Q9BPW0); assay: Counterscreen for inhibitors of PP1: fluorescence-based biochemical high throughput dose response assay to identify inhibitors of Protein Phosphatase 5 (PP5). [Related pubchem assays: 2034 (Summary (PP5 inhibitors)), 1987 (PP5 inhibitors in singlate), 2235 (PP1 inhibitors in singlate)]
Streptococcus = assay: GAS UMAA2166 growth inhibition – luminescence, BacTiterGlo, counter-screen for streptokinase expression inhibitor project, dose response (AID 1915); type: functional, organism-based;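 also: potency for reduction of bacterial viability or growth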
Nonstructural protein 1 = Nonstructural protein 1 (Influenza A virus, UniProt Q194T2); type: functional, Influenza A virus (A/California/07/2009(H1N1))
Vero = assay: viability of Vero cells under compound – cytotoxicity control for flavivirus capping enzyme inhibitors (AID 588742); type: functional; settings: Chlorocebus sabaeus
[8] = target: Disintegrin and metalloproteinase domain-containing protein 17 (Homo sapiens, UniProt P78536); assay: exosite inhibitors of ADAM17, dose response, biochemical (AID 743260)
[9] = target: Lysosomal acid glucosylceramidase (Homo sapiens, UniProt P04062); assay: Dose response cell-based high throughput screening assay to identify enhancers of beta-glucosidase activity. [Related pubchem assays: 784 ]; type: functional
Aspartyl aminopeptidase = target: T3, Aspartyl aminopeptidase (Plasmodium falciparum 3D7, UniProt Q8I2J3)
T3 sequence (Q8I2J3 whole entry): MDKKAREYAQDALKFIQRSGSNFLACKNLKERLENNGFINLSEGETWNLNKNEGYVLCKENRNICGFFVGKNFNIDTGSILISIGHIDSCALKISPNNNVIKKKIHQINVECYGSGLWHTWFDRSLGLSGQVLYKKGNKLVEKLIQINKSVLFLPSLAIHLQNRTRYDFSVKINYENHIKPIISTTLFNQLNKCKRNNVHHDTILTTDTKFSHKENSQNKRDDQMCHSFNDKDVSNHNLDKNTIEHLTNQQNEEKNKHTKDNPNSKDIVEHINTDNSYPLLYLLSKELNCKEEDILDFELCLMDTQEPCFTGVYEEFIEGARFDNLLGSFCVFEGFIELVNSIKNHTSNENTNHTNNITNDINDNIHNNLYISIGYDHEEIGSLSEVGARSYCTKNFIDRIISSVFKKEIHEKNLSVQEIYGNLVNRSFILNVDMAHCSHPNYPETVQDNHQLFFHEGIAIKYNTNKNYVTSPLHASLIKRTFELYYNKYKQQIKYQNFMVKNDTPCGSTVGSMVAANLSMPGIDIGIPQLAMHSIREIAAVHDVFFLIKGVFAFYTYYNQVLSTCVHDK

Procathepsin L = Procathepsin L (Homo sapiens, UniProt P07711)
Cytochrome P450 2D6 = Cytochrome P450 2D6 (Homo sapiens, UniProt P10635); assay: qHTS Assay for Inhibitors and Substrates of Cytochrome P450 2D6. [Related pubchem assays: 410 ]; type: ADME; settings: read-out: Potency
[10] = viability of uninfected HEp-2 cells – cell-based, HTS, cytotoxicity control for RSV inhibitor project, dose response (AID 2410); type: functional; settings: human respiratory syncytial virus
[11] = target: E3 ubiquitin-protein ligase Mdm2 (Homo sapiens, UniProt Q00987); assay: MDM2-luc reporter signal enhancers, multi-concentration potency testing, MDM2 ubiquitin-protein ligase inhibitor program, whole-cell format, luminescence detection, 384-well microplate (AID 1394); type: functional;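 also: MDM2 E3 inhibitors raise luminescence so EC50 is for signal enhancement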
SUMO-activating enzyme [12] = target: T4, SUMO-activating enzyme (Homo sapiens, UniProt Q9UBT2); assay: blockers of UBC9-mediated SUMO conjugation – biochemical, AlphaScreen, SUMOylation inhibitor project, confirmation (AID 2018); type: functional
SUMO-activating enzyme [13] = target: T4, SUMO-activating enzyme; assay: blockers of SAE1/SAE2–UBC9 SUMO transfer – biochemical, HTRF, uHTS, primary screen (AID 2006); type: protein-complex assay
[14] = microbe, parasite or virus in culture; type: functional; settings: Mycobacterium tuberculosis
Hexokinase HKDC1 = target: T5, Hexokinase HKDC1 (Homo sapiens, UniProt Q2TB90); assay: inhibition of HKDC1 glucose phosphorylation – biochemical, W721R variant, dose response (AID 504729); type: functional
T5 sequence (Q2TB90 whole entry): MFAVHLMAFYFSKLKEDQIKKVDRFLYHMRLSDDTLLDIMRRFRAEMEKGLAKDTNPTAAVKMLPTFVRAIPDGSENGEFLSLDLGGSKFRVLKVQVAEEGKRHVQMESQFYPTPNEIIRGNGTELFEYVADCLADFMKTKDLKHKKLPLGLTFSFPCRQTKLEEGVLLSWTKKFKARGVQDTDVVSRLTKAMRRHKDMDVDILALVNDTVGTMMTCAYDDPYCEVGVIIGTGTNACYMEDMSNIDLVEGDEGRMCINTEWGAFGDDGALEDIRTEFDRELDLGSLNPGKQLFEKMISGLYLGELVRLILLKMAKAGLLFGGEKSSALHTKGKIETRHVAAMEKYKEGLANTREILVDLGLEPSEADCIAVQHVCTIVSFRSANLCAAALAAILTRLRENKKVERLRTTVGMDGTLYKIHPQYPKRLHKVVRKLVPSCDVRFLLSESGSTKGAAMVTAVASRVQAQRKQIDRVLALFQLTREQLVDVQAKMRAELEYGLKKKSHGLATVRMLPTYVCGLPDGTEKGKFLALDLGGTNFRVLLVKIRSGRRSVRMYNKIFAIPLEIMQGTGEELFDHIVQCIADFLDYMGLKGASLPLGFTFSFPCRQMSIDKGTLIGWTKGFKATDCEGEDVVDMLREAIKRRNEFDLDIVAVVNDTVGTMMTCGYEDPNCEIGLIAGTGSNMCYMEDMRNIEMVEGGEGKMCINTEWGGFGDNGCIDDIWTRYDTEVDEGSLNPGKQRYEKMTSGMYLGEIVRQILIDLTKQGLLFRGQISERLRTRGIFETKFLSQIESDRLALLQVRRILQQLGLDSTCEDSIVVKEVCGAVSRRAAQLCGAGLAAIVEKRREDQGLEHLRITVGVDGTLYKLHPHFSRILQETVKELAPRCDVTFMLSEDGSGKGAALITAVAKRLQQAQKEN

T4 sequence (Q9UBE0 whole entry): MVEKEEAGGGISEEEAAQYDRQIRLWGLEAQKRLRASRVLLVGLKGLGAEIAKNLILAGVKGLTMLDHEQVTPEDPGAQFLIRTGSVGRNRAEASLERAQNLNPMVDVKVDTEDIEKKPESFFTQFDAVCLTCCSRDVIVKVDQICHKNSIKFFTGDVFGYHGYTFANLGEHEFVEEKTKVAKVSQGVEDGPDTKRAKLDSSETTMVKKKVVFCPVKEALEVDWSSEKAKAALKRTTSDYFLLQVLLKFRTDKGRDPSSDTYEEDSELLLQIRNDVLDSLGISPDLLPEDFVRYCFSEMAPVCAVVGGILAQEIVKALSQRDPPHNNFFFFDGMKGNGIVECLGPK
T4 sequence (Q9UBT2 whole entry): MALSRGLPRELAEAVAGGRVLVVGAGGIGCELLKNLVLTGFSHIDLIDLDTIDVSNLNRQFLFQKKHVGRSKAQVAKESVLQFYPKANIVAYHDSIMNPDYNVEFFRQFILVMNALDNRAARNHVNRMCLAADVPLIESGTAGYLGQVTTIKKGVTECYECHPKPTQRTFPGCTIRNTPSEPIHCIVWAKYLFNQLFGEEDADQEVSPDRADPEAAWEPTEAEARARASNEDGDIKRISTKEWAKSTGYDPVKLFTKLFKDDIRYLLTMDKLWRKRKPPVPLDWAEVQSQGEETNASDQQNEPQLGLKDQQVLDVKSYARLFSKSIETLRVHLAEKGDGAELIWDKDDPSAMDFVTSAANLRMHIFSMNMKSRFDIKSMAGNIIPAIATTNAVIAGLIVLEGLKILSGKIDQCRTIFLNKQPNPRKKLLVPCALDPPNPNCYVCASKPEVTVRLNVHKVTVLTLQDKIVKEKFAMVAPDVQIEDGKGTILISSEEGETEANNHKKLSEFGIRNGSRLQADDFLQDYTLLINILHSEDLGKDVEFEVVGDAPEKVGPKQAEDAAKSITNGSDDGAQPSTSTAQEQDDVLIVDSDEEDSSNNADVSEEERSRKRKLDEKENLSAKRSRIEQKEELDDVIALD
Serine/threonine-protein phosphatase, sequence (Q9BPW0 whole entry): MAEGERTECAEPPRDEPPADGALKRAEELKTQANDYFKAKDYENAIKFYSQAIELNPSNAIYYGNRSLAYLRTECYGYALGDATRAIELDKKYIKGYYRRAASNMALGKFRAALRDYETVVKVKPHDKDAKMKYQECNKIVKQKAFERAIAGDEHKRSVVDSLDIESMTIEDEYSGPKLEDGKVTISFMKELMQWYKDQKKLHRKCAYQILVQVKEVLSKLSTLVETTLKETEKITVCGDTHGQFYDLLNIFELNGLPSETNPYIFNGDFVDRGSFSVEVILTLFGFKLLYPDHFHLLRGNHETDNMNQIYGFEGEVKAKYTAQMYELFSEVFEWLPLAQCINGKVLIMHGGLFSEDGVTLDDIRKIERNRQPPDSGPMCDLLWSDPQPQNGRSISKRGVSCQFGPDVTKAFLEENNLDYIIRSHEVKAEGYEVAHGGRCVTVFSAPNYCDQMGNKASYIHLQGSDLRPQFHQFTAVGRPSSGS
Nonstructural protein 1, sequence (Q194T2 whole entry): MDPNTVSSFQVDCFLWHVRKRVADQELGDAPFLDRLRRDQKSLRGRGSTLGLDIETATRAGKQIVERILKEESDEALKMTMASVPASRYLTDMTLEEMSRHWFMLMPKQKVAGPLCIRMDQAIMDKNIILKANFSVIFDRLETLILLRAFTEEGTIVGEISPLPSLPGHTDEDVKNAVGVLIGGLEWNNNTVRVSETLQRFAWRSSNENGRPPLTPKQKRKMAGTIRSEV
Procathepsin L, sequence (P07711 whole entry): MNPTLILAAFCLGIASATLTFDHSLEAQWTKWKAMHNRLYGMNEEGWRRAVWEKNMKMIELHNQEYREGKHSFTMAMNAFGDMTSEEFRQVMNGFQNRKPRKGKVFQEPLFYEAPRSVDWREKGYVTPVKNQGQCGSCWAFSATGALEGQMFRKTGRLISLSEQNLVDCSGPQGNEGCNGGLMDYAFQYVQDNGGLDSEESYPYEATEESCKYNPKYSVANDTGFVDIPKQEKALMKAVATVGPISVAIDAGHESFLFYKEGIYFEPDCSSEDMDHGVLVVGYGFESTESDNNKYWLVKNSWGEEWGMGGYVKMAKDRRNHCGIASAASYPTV
Dual specificity protein phosphatase 3, sequence (P51452 whole entry): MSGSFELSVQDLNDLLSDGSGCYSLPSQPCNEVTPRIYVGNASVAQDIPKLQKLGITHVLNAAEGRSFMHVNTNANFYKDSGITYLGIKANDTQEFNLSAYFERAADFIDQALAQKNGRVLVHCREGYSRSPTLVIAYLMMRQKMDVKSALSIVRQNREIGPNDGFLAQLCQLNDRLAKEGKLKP
Melanin-concentrating hormone receptor 1, sequence (Q99705 whole entry): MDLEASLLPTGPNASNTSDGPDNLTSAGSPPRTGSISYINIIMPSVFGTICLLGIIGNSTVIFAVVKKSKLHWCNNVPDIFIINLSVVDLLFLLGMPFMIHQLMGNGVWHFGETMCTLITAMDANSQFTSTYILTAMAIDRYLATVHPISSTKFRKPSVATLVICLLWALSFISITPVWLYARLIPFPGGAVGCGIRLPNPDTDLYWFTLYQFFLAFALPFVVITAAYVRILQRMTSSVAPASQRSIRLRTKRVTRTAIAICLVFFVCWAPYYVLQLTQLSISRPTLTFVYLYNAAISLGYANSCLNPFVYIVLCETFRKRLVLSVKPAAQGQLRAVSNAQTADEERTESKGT
Serine/threonine-protein phosphatase PP1-alpha catalytic subunit, sequence (P62136 whole entry): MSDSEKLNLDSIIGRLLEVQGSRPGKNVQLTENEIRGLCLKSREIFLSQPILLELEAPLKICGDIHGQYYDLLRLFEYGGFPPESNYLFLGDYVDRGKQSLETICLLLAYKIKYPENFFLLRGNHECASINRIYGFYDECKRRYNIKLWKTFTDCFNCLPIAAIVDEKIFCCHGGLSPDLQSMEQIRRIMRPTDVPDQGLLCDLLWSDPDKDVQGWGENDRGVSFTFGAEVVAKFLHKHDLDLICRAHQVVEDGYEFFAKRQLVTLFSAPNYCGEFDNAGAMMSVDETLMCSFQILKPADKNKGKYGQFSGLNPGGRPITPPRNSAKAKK
Lysosomal acid glucosylceramidase, sequence (P04062 whole entry): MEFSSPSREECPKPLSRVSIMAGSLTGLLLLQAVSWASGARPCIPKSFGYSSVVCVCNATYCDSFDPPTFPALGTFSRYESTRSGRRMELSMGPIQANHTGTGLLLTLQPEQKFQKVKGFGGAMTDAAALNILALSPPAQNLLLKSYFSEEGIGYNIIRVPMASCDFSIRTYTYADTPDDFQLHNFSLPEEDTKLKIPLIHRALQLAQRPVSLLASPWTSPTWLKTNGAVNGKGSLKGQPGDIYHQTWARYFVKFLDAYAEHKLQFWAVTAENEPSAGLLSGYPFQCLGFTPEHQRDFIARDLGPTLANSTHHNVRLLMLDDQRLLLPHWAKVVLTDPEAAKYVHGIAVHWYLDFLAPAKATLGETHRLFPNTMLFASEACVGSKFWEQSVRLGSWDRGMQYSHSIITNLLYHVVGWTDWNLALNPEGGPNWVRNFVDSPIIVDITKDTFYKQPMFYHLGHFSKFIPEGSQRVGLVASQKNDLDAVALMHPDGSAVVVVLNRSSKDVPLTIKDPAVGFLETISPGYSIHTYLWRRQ
Disintegrin and metalloproteinase domain-containing protein 17, sequence (P78536 whole entry, the tested form may be a part): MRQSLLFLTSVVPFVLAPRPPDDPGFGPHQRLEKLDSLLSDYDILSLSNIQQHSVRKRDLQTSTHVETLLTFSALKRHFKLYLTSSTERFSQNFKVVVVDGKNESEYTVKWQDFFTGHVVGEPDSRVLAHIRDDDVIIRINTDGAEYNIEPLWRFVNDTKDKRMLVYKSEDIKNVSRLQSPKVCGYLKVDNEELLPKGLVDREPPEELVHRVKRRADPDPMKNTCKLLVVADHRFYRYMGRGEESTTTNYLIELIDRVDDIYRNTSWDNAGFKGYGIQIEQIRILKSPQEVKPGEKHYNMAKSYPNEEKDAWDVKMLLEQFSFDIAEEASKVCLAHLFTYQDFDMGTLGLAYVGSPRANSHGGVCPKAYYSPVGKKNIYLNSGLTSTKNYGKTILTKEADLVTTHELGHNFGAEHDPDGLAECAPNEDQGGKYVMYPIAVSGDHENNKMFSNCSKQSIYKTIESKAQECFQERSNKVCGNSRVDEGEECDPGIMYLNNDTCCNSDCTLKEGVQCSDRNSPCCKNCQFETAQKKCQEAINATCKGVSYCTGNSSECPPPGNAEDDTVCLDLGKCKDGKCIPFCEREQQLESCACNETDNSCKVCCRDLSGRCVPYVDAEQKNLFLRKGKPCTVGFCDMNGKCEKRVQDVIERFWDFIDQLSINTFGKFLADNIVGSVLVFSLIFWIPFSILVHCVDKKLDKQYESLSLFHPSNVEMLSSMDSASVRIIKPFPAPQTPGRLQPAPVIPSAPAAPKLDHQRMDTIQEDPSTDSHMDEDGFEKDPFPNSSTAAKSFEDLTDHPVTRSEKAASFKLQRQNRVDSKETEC
E3 ubiquitin-protein ligase Mdm2, sequence (Q00987 whole entry): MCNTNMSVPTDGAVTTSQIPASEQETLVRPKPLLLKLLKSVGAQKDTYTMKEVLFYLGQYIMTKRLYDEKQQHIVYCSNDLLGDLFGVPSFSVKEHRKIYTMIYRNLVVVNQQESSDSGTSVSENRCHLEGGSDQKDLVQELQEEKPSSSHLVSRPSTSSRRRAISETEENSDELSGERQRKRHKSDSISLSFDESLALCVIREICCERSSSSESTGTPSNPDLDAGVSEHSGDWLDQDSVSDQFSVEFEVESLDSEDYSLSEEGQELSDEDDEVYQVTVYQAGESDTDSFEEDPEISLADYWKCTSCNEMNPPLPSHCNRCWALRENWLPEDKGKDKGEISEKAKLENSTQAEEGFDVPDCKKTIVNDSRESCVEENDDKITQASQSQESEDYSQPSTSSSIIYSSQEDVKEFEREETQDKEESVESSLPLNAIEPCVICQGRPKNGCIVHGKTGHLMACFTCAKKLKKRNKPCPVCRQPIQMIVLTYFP

O=C(CCN(CCO)Cc1ccccc1)Nc1ccc(Br)cc1
IC50 [1]: > 14.6 µM (not active)
IC50 [2]: 17.6 µM (not active)

Fc1c(F)c(C(F)(F)F)c(F)c(F)c1Oc1cccc2cccnc12
Ki [3]: 122 µM (inactive)

Oc1c(C(c2ccccn2)N2CCCCC2)cc(Cl)c2cccnc12 (configuration not stated)
EC50 [4]: 6.02 µM (active)
IC50 [5]: 2.48 µM (active)
EC50 [6]: 81.1 µM (not active)
EC50 (Streptokinase A): > 150 µM (not active)
IC50 [7]: 42.3 µM (not active)
EC50 (Streptococcus): 15.4 µM (active)
IC50 (Nonstructural protein 1): 8.02 µM (active)
CC50 (Vero): 31.4 µM (active)
IC50 [8]: 17 µM (inactive)

CCCCNC(=O)C1CCCN1C(=O)Nc1cccc(OC)c1 (configuration not stated)
EC50 [9]: > 50 µM (not active)

CN1C(=O)N(c2cccc3ccccc23)C(n2cncn2)C1(C)C (configuration not stated)
IC50 (Aspartyl aminopeptidase): 1.8 µM (active)
IC50 (Procathepsin L): > 59.6 µM (not active)

C=C(C)C(O)C(CC/C=C(\C)C(=O)OCC)OC (configuration not stated)
AC50 (Cytochrome P450 2D6): 3.16 µM (inconclusive)

COc1cc(NC(=O)c2cnc(N)s2)cc(C(=O)Nc2cccc(C(F)(F)F)c2)c1
CC50 [10]: 23.6 µM (active)
EC50 [11]: 22.9 µM (not active)
IC50 (SUMO-activating enzyme [12]): 10.8 µM (active)
IC50 (SUMO-activating enzyme [13]): 34.5 µM (active)
CC50 [14]: > 40 µM (active)
IC50 (Hexokinase HKDC1): 10.5 µM (active)
